Experiments:
[1] = test system: T. cruzi epimastigotes; assay: Epimastigote growth in LIT medium; assay type: cell-based, Trypanosoma cruzi; details: 1 µM, 5 µM and 10 µM
Procedure: We analyzed the growth rate of epimastigotes in LIT medium at different Ru265 concentrations (1 µM, 5 µM, and 10 µM). […] The presence of metabolic inhibitors affects attachment and invasion of T. cruzi trypomastigotes to mammalian cells since these are an active process which depends on the expenditure of parasite energy. Preincubation of trypomastigotes for 30 min with antimycin A, which blocks electron transport from cytochrome b to c1, decreased the ability of trypomastigotes to attach to glutaraldehyde-fixed cells (Figure 4b) and invade intact host cells (Figure 4c).
Figure 4 Effect of Ru265 on Trypanosoma cruzi. (a) Effect of Ru265 on epimastigote growth. […] After 1 h of incubation at 37 °C, the cells were washed, and the number of attached trypomastigotes was counted. […] After 4 h of incubation at 37 °C, the cells were washed, and the number of intracellular parasites was counted. […] (f) Routine respiration (initial oxygen flux values), leak respiration after the addition of 0.5 µg/mL of oligomycin A, and electron transfer system (ETS) capacity after the sequential additions of FCCP (0.2 μM each) were measured for each condition. […] (g) Representative experiment showing mitochondrial Ca^2+ uptake by intact epimastigotes in relative fluorescence units (RFU). […] (h) Changes in fluorescence (before and after ionomycin addition) from three experiments like that shown in panel (g). […]

[2] = test system: T. cruzi epimastigotes (intact, non-permeabilized); assay: Mitochondrial Ca2+ uptake in intact epimastigotes using Rhod-2 AM; assay type: cell-based, Trypanosoma cruzi
Procedure: Figure 4 Effect of Ru265 on Trypanosoma cruzi. (a) Effect of Ru265 on epimastigote growth. Growth of control epimastigotes in LIT medium in the presence of 1 μM, 5 μM, and 10 μM Ru265. (b) Effect of Ru265 on trypomastigote attachment. Trypomastigotes were pretreated for 30 min with 1 μM antimycin A (AA) or 10 μM Ru265 and added to glutaraldehyde-fixed Vero cells. After 1 h of incubation at 37 °C, the cells were washed, and the number of attached trypomastigotes was counted. […] (c) Effect of Ru265 on trypomastigotes infection. Trypomastigotes were pretreated for 30 min with 1 μM antimycin A or 10 μM Ru265 and added to Vero cells. After 4 h of incubation at 37 °C, the cells were washed, and the number of intracellular parasites was counted. […] (f) Routine respiration (initial oxygen flux values), leak respiration after the addition of 0.5 µg/mL of oligomycin A, and electron transfer system (ETS) capacity after the sequential additions of FCCP (0.2 μM each) were measured for each condition. […] (g) Representative experiment showing mitochondrial Ca^2+ uptake by intact epimastigotes in relative fluorescence units (RFU). […] (h) Changes in fluorescence (before and after ionomycin addition) from three experiments like that shown in panel (g). […]

N.N.N.N.N.N.N.N.[Cl][Ru+3].[N-]=[Ru][Cl] [Ru265]
Toxicity to epimastigotes [1]: nontoxic at the concentrations tested
Effect on growth rate of epimastigotes ([1]; control epimastigotes): does not affect the growth rate
Amount of Ca2+ taken up by mitochondria of intact cells (Rhod-2 fluorescence) ([2]; 50 µM Ru265 for 30 min, nigericin + ionomycin, three experiments): no significant difference
Permeability in trypanosomes (inferred from lack of effect on intact cells) ([2]; intact epimastigotes): low permeability

From PMC7730205, “Different Sensitivity of Control and MICU1- and MICU2-Ablated Trypanosoma cruzi Mitochondrial Calcium Uniporter Complex to Ruthenium-Based Inhibitors” (International Journal of Molecular Sciences, 2020)
